From patent US5304379A, “Method for reducing sensitization or irritation in transdermal drug delivery and means therefor” (priority 1992, dated 1994)

Key:
[1] = Patch test (elicitation) in a human subject sensitized to propranolol
Protocol: A human subject suspected of being sensitized to propranolol was patch tested for 16 hours with 0.5% propranolol in a 2% hydroxyethyl cellulose (HEC) gel buffered to a pH of 8.5 with 0.05M TrisHC1.
The same subject was patch tested several days later with the following compositions in 2% HEC gel buffered to a pH of 8.5 with 0.05M TrisHC1: 0.5% propranolol; 0.5% tranylcypromine; 10% 2-phenyl-1-ethanol; 0.5% propranolol with 0.5% tranylcypromine; and 0.5% propranolol with 10% 2-phenyl-1-ethanol. Each composition was placed simultaneously at different sites on the subject's volar forearm.

[2] = tested on: propranolol metabolism in human keratinocytes; conditions: tritiated propranolol 1.5×10^-7 M, several days, metabolites by TLC, vs control incubation without tranylcypromine
Protocol: At the end of several days, the metabolites resulting from propranolol ,metabolism were identified and quantitated by thin layer chromatography.
Human keratinocytes were incubated in tritiated propranolol (12.5 Ci/mmole, final concentration 1.5×10^-7 M) and a range of concentration of each phenyl alcohol. Quadruplicates were used at each concentration. At six days, the metabolites resulting from propranolol deamination were extracted (ether, pH of 3) and the radioactivity of the extract was measured by scintillation counting. The concentration of each phenyl alcohol studied, which inhibits 50 percent of propranolol metabolism (MI50) was estimated by means of the Litchfield and Wilcoxon method.

[3] = tested on: monoamine oxidase-dependent tetracaine metabolism; test: In vitro metabolism of tetracaine (methods of the propranolol studies)
[4] = Patch test (elicitation) in human subjects sensitized to tetracaine, erythema by Minolta Chromameter; assay type: in vivo; conditions: 21 hours after removal
Protocol: Testing occurred over a period of several weeks where a positive control composition was placed on the skin along with one of the tetracaine/phenyl alcohol compositions and the intensity of the skin reaction obtained, was observed. This was repeated on different areas of the arm until all of the compositions were tested. Each formulation remained on the skin for a period of three hours and the reactions were observed during the 16-24 hour period after removal of the formulation. Erythema or redness of the reaction site was quantitated with a Minolta Chromameter. In all instances, the intensity of the reaction caused by the tetracaine/phenyl alcohol composition, was less than that caused by tetracaine alone (positive control). Thus it was established that the presence of phenyl alcohols reduced the elicitation reaction as compared to the 2% tetracaine gel.
The best results were obtained using 2-phenyl-1-ethanol and 3-phenyl-1-propanol. On a scale of 0-100, with 0 being 0% inhibition (2% tetracaine gel/positive control) and 100 being 100% inhibition (placebo gel/negative control), the following data was obtained 21 hours after removal of the formulations: […]

[5] = Induction of contact sensitization by patches in groups of 100 human subjects; assay type: in vivo; conditions: tetracaine/2-phenyl-1-ethanol patches vs tetracaine-only patches, 100 subjects each
Protocol: The components were blended in an internal mixing bowl at 100° C. and after approximately one hour, the mixture was extruded between two release substrates. One substrate was peeled away and a backing member was applied in its place.
Similar patches were manufactured without the presence of 2-phenyl-1-ethanol.
Two groups of 100 human subjects each were then tested. They were each tested by application of a system, for a three hour duration, once every 8 weeks.
100 subjects were given the patches containing only tetracaine. […] The other 100 subjects were given the patches containing both tetracaine and 2-phenyl-1-ethanol.

[6] = tested on: monoamine oxidase activity; assay type: cell-based
From the text: Therefore, the metabolism of chlorpheniramine can also be inhibited in the skin or mucosa, by the addition of metabolic modulators such as the phenyl alcohols disclosed with reference to propranolol.

[7] = 0.5% alone in 2% HEC gel pH 8.5, volar forearm, one day later, propranolol-sensitized subject
[8] = 2.5 weight % inhibitor with 2% tetracaine gel
[9] = 5 weight % inhibitor with 2% tetracaine gel
[10] = 10 weight % inhibitor with 2% tetracaine gel

Row | Structure (SMILES) | skin reaction at patch site [1, 7] | inhibition of monoamine oxidase-dependent tetracaine metabolism [3] | Percent Inhibition of Reaction [4, 8] [%] | Percent Inhibition of Reaction [4, 9] [%] | Percent Inhibition of Reaction [4, 10] [%] | further results
1 | N[C@@H]1C[C@H]1c1ccccc1 (relative stereo) [tranylcypromine] | No reaction | could be inhibited | – | – | – | inhibition of propranolol metabolism [2]: inhibited
2 | OCCc1ccccc1 [2-phenyl-1-ethanol] | – | could be inhibited | 52 | 52 | 77 | skin reaction at patch site ([1]; human, in vivo, pH 8.5): No reaction; reduction of the incidence of sensitization [5]: about 70%
3 | OCCCc1ccccc1 [3-Phenyl-1-propanol, 3-phenyl-1-propanol] | – | – | 37 | 100 | 100 | –
4 | CN(C)CCC(c1ccc(Cl)cc1)c1ccccn1 (stereo not shown) [chlorpheniramine] | – | – | – | – | – | dependence of in vitro skin metabolism on monoamine oxidase activity [6]: largely dependent upon monoamine oxidase activity
5 | CC(C)NCC(O)COc1cccc2ccccc12 (stereo not shown) [propranolol] | strong reaction | – | – | – | – | skin reaction after patch test ([1]; 0.5% in 2% HEC gel pH 8.5, 16 hours patch, one to two days later): a reaction which was characteristic of a contact sensitization reaction
6 | CCCCNc1ccc(C(=O)OCCN(C)C)cc1 [tetracaine] | – | – | – | – | – | portion of metabolism that is monoamine oxidase-dependent [3]: 25%
